Test results taken from patent US8609362B2, “G-proteins” (Givaudan SA, priority 2002, dated 2013).
Read-outs that look alike come from different tables or passages of the source. Residues, ends and D or L forms follow the SMILES beside them.

Key:
human TAS1R2/TAS1R3 = biological target: T1, human TAS1R2/TAS1R3 (Homo sapiens, UniProt Q7RTX0+Q8TE23); assay: Fluo-4 calcium assay, cells transfected with human sweet receptor TAS1R2/TAS1R3 and expressing a promiscuous G-protein; format: cell-based; settings: for fluorescence signal with Gα16-gustducin 44, times stronger than wild-type Gα16: HEK293T cells; for fluorescence signal with Gα16-gustducin 44, times stronger than wild-type Gα16 / fluorescence signal (in words): ligand 2.5 mM
T1 construct: expressed in transfected cells; host or cells: HEK293T cells stably expressing the G-protein, co-transfected with T1R2 and T1R3 cDNA
T1 sequence (Q8TE23 20-839): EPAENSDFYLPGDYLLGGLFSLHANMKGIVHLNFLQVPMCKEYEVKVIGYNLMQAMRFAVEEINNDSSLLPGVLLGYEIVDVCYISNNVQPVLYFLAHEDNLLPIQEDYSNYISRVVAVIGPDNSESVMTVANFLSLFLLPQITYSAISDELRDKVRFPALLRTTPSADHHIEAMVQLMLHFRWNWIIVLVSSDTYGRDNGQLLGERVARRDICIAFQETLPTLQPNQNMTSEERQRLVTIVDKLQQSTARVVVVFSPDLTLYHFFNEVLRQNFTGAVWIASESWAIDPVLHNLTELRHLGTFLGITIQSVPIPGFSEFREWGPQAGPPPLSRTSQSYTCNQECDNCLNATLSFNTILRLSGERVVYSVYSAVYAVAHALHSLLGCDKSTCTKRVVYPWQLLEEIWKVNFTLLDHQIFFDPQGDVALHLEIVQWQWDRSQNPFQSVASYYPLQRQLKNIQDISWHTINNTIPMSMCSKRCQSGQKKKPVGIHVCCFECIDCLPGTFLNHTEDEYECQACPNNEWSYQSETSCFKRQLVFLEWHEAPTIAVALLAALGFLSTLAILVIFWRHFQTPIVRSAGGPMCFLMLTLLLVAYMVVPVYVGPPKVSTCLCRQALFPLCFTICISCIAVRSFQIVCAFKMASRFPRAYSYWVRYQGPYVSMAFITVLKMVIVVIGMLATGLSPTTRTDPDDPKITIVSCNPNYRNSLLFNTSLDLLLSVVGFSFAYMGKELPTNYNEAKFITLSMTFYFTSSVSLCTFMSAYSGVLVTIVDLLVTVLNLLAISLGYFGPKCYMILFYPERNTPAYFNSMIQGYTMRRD
T1 sequence (Q7RTX0 21-852): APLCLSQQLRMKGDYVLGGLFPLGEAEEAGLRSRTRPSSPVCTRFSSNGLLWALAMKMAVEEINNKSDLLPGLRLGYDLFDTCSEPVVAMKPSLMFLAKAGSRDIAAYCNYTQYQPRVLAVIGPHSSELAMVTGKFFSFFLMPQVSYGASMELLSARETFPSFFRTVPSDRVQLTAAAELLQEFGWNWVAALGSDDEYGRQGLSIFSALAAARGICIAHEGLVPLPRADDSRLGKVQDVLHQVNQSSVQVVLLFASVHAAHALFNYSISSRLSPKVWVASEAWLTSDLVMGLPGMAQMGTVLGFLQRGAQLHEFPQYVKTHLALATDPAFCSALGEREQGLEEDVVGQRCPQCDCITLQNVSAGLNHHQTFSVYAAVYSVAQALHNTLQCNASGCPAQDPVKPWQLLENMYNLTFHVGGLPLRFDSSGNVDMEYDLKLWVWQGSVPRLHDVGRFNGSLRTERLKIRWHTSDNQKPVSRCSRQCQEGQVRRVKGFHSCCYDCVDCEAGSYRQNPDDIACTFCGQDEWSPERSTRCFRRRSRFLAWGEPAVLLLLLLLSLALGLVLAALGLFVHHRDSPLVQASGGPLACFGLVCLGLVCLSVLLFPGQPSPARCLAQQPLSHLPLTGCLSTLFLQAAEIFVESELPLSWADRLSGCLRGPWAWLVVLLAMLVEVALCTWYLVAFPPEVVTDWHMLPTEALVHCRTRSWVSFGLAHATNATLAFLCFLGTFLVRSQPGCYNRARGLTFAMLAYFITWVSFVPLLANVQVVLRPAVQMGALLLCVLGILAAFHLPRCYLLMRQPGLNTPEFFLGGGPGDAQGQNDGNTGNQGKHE
Procedure: (§1) At day 0, cells stably expressing the G-protein are plated in a 6-well plate at a density of 800,000-950,000 cells per well and grown overnight in selective growth media. On day 1, the media is changed to an antibiotic-free growth media and the cells are transfected using 2 μg of T1 R2 and 2 μg of T1 R3 cDNA and 10 μl of Lipofectamine 2000 (Invitrogen). The cells are maintained overnight in antibiotic-free growth media. On day 2, the cells are replated into a black, clear-bottom 96 well plate at 20,000 cells per well and grown overnight. The morning of the calcium assay, the media is replaced with low glucose media supplemented with Glutamax and dialyzed FBS to minimize receptor desensitization by sugars and glutamate. The cells are further incubated in this media for 6 hours at 37 degrees C. At the end of this period, the cells are processed for the calcium assay according to conditions described above.
(§2) Following the methodology as described in Example 5 the following results were obtained: […]

mouse T2R5 = biological target: T2, mouse T2R5 (Mus musculus, UniProt Q9JKT4); assay: Fluo-4 calcium assay, cells transfected with mouse bitter receptor T2R5 and expressing a promiscuous G-protein; format: cell-based; settings: for increase in mean fluorescence over baseline following ligand addition: ligand 10 μM
T2 construct: expressed in transfected cells; host or cells: HEK293T cells stably expressing Gα16gustducin44 or Gα16
T2 sequence (Q9JKT4 1-300): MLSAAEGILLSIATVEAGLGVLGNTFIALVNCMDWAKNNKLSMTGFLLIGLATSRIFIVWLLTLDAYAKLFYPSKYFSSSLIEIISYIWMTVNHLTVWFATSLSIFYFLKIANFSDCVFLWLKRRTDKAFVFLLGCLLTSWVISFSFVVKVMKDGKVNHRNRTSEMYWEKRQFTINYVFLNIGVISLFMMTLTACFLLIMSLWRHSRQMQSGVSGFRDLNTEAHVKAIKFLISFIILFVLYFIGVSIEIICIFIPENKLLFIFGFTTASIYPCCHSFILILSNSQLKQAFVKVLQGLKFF
Procedure: (§3) At day 0, cells stably expressing the G-protein are plated in black, clear-bottom 96-well plate at 20,000 cells per well and grown overnight in selective growth media. On day 1, the media is changed to an antibiotic-free growth media and the cells are transfected using 300 ng GPCR DNA and 0.6 μl of Lipofectamine 2000 (Invitrogen). The cells are grown overnight and processed the next day using the Fluo-4 calcium assay conditions described in Example 2 above.
as §2

[1] = system: sham transfected (control); assay: Fluo-4 calcium assay, sham transfected control cells of Table 2; format: cell-based
Procedure: as §3, §2

human TAS2R16 = biological target: T3, human TAS2R16 (Homo sapiens, UniProt Q9NYV7); assay: Fluo-4 calcium assay, cells transiently transfected with human TAS2R16 and expressing a promiscuous G-protein; format: cell-based; settings: ligand 5 mM; for fluorescent signal with Gα16-gustducin 44, times stronger than reference chimeric G-protein Gα16-z44 / fluorescent signal with Gα16-gustducin 44, times stronger than wild-type Gα16: HEK293T cells, Flexstation; for fluorescent signal with Gα16-gustducin 44, times stronger than reference chimeric G-protein Gα16-z44 / fluorescent signal with Gα16-gustducin 44, times stronger than wild-type Gα16 / fluorescent signal (in words): TAS2R16; for increase in mean fluorescence over baseline following ligand addition: human TAS2R16
T3 construct: expressed in transfected cells; host or cells: HEK293T cells stably expressing Gα16gustducin44, Gα16 or Gα16z44
T3 sequence (Q9NYV7 1-291): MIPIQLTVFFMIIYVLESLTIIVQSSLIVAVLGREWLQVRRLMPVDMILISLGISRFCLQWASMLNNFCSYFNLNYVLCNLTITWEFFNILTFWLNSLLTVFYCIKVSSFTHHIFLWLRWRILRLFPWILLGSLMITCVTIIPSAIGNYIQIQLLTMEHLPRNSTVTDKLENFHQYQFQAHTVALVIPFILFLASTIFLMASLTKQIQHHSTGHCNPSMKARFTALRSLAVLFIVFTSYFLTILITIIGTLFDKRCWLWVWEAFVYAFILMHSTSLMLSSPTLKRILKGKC
Procedure: The protocol is described in “G-protein coupled receptors (Signal Transduction Series)”; Editors: Tatsuya Haga and Gabriel Berstein, 1st ed., 424 pp.CRC Press—Boca Raton, Fla.; September 1999, and may be summarised as follows: • 1. Day 0: 96-well plates are seeded with 20K cells per well and maintained at 37 degrees C. overnight in nutritive growth media. • 2. Day 1: Cells are transfected using 300 ng of GPCR DNA and 0.6 μl of Lipofectamine 2000 (Invitrogen) per well. Transfected cells are and maintained at 37 degrees C. overnight in nutritive growth media. • 3.
as §3

[2] = system: sham transfected (control); assay: Fluo-4 calcium assay, sham transfected control cells of Table 1; format: cell-based
Procedure: as §3

human TAS2R38 = biological target: T4, human TAS2R38 (Homo sapiens, UniProt P59533); assay: Fluo-4 calcium assay, tetracycline-inducible cells stably expressing human TAS2R38 and G16gust44; format: cell-based; settings: ligand 250 μM; for fluorescence signal (in words): HEK293 T-Rex cells, TAS2R38, G16-gustducin 44
T4 construct: expressed in transfected cells
T4 sequence (P59533 1-333): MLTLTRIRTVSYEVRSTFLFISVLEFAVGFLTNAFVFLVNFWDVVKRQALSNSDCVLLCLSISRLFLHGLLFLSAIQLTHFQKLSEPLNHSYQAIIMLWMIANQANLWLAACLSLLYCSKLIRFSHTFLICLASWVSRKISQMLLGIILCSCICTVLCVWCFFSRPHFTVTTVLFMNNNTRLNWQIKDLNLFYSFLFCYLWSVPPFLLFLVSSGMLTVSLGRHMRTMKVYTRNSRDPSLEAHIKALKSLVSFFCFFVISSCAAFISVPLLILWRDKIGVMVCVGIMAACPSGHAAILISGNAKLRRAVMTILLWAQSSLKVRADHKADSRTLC
Excerpt: (§4) The following results were obtained:

[3] = system: G-protein only (control w/o tetracycline); assay: Fluo-4 calcium assay, G-protein only control w/o tetracycline (TAS2R38 cell line); format: cell-based; settings: Gα16gustducin44, ligand 250 μM
Excerpt: as §4

[4] = system: G-protein only (control w/o tetracycline); settings: Gα16gustducin44, ligand 250 μM
Procedure: All assays are performed using black, clear-bottom 96-well plates that have been seeded the day before with 20K transfected cells per well and have been maintained at 37 degrees C. overnight in appropriate growth media. At the time of the assay, the growth media is discarded and cells are incubated for 1 hour (at room temperature in the dark) with 75 μl of a calcium assay solution consisting of 1.5 μM Fluo-4 AM (Molecular Probes) and 2.5 mM probenicid (Sigma-Aldrich) dissolved in a Hanks balanced salts solution (HBSS) that has been supplemented with 10 mM Hepes, 200 μM calcium chloride and 0.1% bovine serum albumin, pH 7.4 at 37 degrees C. […] For assay reading, the plate is placed in a fluorescent microplate reader, for example the Flexstation (Molecular Devices), and receptor activation is initiated following addition of 20 μl of a 10× concentrated ligand stock solution. Fluorescence is continuously monitored for 15 seconds prior to ligand addition and for 45-75 seconds after ligand addition. Receptor activation levels are defined as by the two following equations: % Activation=(Maximum fluorescence−baseline fluorescence/baseline fluorescence)*100 or Fluorescence Increase=Maximum Fluorescence—baseline fluorescence, where baseline fluorescence represents the average fluorescence levels prior to ligand addition. […]

[5] = system: sham transfected (control); assay: Fluo-4 calcium assay, sham transfected control cells of Table 7; format: cell-based
Procedure: as §1, §2

[6] = G-protein Gα16gustducin44, ligand 2.5 mM

## CC1=CC(=O)[N-]S(=O)(=O)O1.[K+] [acesulfame K]
Human TAS1R2/TAS1R3
  fluorescence signal with Gα16-gustducin 44, times stronger than wild-type Gα16: 2 times
  fluorescence signal (in words): robust flurorescence signal

## COC(=O)[C@H](Cc1ccccc1)NC(=O)[C@@H](N)CC(=O)O [aspartame] (H-Asp-Phe-OMe)
Human TAS1R2/TAS1R3
  fluorescence signal with Gα16-gustducin 44, times stronger than wild-type Gα16: 2 times
  fluorescence signal (in words): robust flurorescence signal

## C[C@@H]1C[C@@H]([C@H](O)CC2CC(=O)NC(=O)C2)C(=O)[C@@H](C)C1 [cycloheximide]
Mouse T2R5; HEK293T cells, mouse T2R5, Gα16-gustducin 44, ligand 10 uM
  fluorescence signal (in words): robust flurorescence signal
Mouse T2R5; HEK293T cells, mouse T2R5, ligand 10 uM
  fluorescence signal with Gα16-gustducin 44, times stronger than wild-type Gα16: 5 times
Mouse T2R5; mouse T2R5, G-protein Gα16
  increase in mean fluorescence over baseline following ligand addition: 2569 RFUs
Mouse T2R5; mouse T2R5, G-protein Gα16gustducin44
  increase in mean fluorescence over baseline following ligand addition: 10407 RFUs
[1]; G-protein Gα16, ligand 10 μM
  increase in mean fluorescence over baseline following ligand addition: 1705 RFUs
[1]; G-protein Gα16gustducin44, ligand 10 μM
  increase in mean fluorescence over baseline following ligand addition: 3989 RFUs

## OC[C@H]1O[C@@H](Oc2ccccc2)[C@H](O)[C@@H](O)[C@@H]1O [phenyl-β-D-glucopyranoside]
Human TAS2R16
  fluorescent signal with Gα16-gustducin 44, times stronger than reference chimeric G-protein Gα16-z44: about 3 times
  fluorescent signal with Gα16-gustducin 44, times stronger than wild-type Gα16: about 7 times
  fluorescent signal (in words): robust fluorescent signal
Human TAS2R16; hTAS2R16
  receptor activation following ligand stimulation, Gα16gustducin44 cells compared with Gα16 cells (in words): greater degree of receptor activation
Human TAS2R16; G-protein Gα16
  increase in mean fluorescence over baseline following ligand addition: 3494 RFUs
Human TAS2R16; G-protein Gα16gustducin44
  increase in mean fluorescence over baseline following ligand addition: 23821 RFUs
Human TAS2R16; G-protein Gα16z44
  increase in mean fluorescence over baseline following ligand addition: 8296 RFUs
[2]; G-protein Gα16, ligand 5 mM
  increase in mean fluorescence over baseline following ligand addition: 1024 RFUs
[2]; G-protein Gα16gustducin44, ligand 5 mM
  increase in mean fluorescence over baseline following ligand addition: 2162 RFUs
[2]; G-protein Gα16z44, ligand 5 mM
  increase in mean fluorescence over baseline following ligand addition: 1541 RFUs

## NC(=S)Nc1ccccc1 [phenylthiocarbamide]
Human TAS2R38; G-protein + human TAS2R38 (with tetracycline), Gα16gustducin44
  increase in mean fluorescence over baseline following ligand addition: 8989 RFUs
Human TAS2R38
  fluorescence signal (in words): robust fluorescence signal
[3]
  increase in mean fluorescence over baseline following ligand addition: 3422 RFUs

## CCCc1cc(=O)[nH]c(=S)[nH]1 [propythiouracil]
Human TAS2R38
  fluorescence signal (in words): robust response

## OCc1ccccc1O[C@@H]1O[C@H](CO)[C@@H](O)[C@H](O)[C@H]1O [salicin]
Human TAS2R16
  fluorescent signal with Gα16-gustducin 44, times stronger than reference chimeric G-protein Gα16-z44: about 3 times
  fluorescent signal with Gα16-gustducin 44, times stronger than wild-type Gα16: about 7 times
  fluorescent signal (in words): robust fluorescent signal

## O=C1C[C@@H]2OCC=C3CN4CC[C@]56c7ccccc7N1[C@H]5[C@H]2[C@H]3C[C@H]46 [strychnine]
[4]
  increase in mean fluorescence over baseline following ligand addition: 13238 RFUs

## OC[C@H]1O[C@H](O[C@]2(CCl)O[C@H](CCl)[C@@H](O)[C@@H]2O)[C@H](O)[C@@H](O)[C@H]1Cl [sucralose]
[5]; G-protein Gα15, ligand 2.5 mM
  increase in mean fluorescence over baseline following ligand addition: 643 RFUs
[5]; [6]
  increase in mean fluorescence over baseline following ligand addition: 1370 RFUs
Human TAS1R2/TAS1R3; G-protein Gα15, ligand 2.5 mM
  increase in mean fluorescence over baseline following ligand addition: 1300 RFUs
Human TAS1R2/TAS1R3; [6]
  increase in mean fluorescence over baseline following ligand addition: 4617 RFUs
Human TAS1R2/TAS1R3
  fluorescence signal with Gα16-gustducin 44, times stronger than wild-type Gα16: 2 times
  fluorescence signal (in words): robust flurorescence signal
